Measured values: patent US11638707B2, “Substituted amino triazoles useful as chitinase inhibitors” (Molecure S.A., priority 2019, dated 2023)
pIC50: −log10 of the molar value.

Legend:
[1] = target: recombinant human AMCase (Homo sapiens (Human), UniProt Q9BZP6); experiment: Human AMCase activity assay; type: biochemical; conditions: citrate buffer pH 5.2, 37° C., 60 minutes, read-out: hAMCase, IC50
Outline: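 Recombinant hAMCase hydrolysed 4-methylumbelliferyl β-D-N,N′-diacetylchitobioside in citrate buffer pH 5.2, run 60 min at 37 °C in the dark with shaking. Released 4MU fluorescence was read at 460 nm under basic pH, and IC50 values were fitted from the compound dilutions.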

[2] = target: hERG channel (Homo sapiens (Human), UniProt Q12809); experiment: Human ERG channel binding assay (fluorescence polarization); conditions: Table 1; tracer displacement, 4 h at room temperature
Sequence of hERG channel (Q12809 whole entry): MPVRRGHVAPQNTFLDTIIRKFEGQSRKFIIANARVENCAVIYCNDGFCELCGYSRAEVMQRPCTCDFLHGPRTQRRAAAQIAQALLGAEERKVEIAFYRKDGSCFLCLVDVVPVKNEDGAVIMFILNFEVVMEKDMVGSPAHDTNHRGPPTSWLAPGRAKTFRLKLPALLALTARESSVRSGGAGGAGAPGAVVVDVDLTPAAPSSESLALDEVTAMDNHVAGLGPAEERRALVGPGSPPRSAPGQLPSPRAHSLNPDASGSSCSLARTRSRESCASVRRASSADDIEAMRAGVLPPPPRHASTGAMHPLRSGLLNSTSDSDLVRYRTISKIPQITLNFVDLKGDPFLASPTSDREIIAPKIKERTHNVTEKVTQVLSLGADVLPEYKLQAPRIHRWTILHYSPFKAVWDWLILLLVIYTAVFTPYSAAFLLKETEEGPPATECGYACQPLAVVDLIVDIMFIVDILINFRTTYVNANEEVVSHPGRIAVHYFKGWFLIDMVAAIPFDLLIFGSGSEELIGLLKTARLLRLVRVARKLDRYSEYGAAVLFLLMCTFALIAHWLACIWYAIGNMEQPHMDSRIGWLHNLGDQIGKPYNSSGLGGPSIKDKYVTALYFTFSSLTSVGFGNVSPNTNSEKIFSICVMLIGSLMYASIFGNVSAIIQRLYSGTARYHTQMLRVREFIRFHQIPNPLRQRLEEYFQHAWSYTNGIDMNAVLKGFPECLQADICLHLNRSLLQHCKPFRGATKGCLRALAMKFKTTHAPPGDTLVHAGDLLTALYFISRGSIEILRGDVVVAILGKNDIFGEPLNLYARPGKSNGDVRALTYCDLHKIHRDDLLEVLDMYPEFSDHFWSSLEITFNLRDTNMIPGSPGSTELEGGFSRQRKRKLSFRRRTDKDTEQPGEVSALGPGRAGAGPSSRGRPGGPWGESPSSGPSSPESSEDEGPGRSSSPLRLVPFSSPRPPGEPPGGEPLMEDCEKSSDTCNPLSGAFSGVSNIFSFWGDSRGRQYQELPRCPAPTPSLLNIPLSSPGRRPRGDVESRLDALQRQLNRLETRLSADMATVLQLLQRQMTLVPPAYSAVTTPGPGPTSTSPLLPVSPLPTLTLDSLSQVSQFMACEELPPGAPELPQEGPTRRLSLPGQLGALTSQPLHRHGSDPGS
Outline: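 Serially diluted compounds were incubated with a hERG-containing membrane fraction and a high-affinity red-shifted fluorescent hERG ligand. Displacement of the tracer was read by fluorescence polarization, and IC50 values were derived from the concentration-response curves.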

[3] = target: recombinant human CHIT1 (Homo sapiens (Human), UniProt Q13231); experiment: Human CHIT1 activity assay; type: biochemical; conditions: recombinant human CHIT1, citrate buffer pH 5.2, 37° C., 60 minutes; read-out: hCHIT1, IC50
Sequence of recombinant human CHIT1 (Q13231 22-466): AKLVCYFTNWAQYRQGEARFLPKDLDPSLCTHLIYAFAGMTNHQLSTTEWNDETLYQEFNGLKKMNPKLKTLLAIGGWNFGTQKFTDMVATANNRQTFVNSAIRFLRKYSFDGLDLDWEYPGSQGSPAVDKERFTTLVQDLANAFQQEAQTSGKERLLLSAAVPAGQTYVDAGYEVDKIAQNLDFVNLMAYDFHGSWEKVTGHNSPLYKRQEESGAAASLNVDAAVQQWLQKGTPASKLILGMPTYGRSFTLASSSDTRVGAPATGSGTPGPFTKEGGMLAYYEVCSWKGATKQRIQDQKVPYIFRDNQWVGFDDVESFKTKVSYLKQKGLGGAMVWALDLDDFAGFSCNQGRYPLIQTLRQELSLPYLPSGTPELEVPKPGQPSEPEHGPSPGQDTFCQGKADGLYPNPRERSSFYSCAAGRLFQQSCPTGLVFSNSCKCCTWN
Outline: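 Recombinant human CHIT1 hydrolysed 4-methylumbelliferyl β-D-N,N′,N″-triacetylchitotriose in citrate buffer, pH 5.2, for 60 minutes at 37° C in the dark with shaking. Released 4MU was read by fluorescence at 460 nm under basic pH; IC50 values were calculated from dilution series.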

Sequence of recombinant human AMCase (Q9BZP6 22-476): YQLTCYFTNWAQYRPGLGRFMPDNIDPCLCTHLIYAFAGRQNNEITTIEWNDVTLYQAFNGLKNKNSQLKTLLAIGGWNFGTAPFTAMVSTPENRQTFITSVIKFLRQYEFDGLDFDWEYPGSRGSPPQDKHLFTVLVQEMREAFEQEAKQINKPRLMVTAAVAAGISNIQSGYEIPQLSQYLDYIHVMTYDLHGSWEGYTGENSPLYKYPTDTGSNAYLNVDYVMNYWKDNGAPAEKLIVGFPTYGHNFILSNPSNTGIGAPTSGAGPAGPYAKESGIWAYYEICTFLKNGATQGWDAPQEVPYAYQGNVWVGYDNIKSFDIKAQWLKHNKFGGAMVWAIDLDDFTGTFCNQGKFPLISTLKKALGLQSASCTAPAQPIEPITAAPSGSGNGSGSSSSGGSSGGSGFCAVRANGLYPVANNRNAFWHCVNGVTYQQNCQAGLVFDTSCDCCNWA

Compound | pIC50 [1] | pIC50 [2] | pIC50 [3]
Nc1nnc(N2CCC(N3C[C@H](CC(F)(F)F)OC[C@@H]3Cc3ccc(Cl)cc3)CC2)[nH]1 [Example 14, 5-(4-((2S,5S)-5-(4-chlorobenzyl)-2-(2,2,2-trifluoroethyl)morpholino)piperidin-1-yl)-4H-1,2,4-triazol-3-amine 2,2,2-trifluoroacetate] | > 7.00 | < 4.00 | > 7.00
Nc1nnc(N2CCC(N3C[C@H](C(=O)NC4CC4)OC[C@@H]3Cc3ccc(Cl)cc3)CC2)[nH]1 [Example 24, (2R,5S)-4-(1-(5-amino-4H-1,2,4-triazol-3-yl)piperidin-4-yl)-5-(4-chlorobenzyl)-N-cyclopropylmorpholine-2-carboxamide 2,2,2-trifluoroacetate] | > 7.00 | < 4.00 | > 7.00
Nc1nnc(N2CCC(N3C[C@H](C(=O)N4CCC(F)(F)C4)OC[C@@H]3Cc3ccc(Cl)cc3)CC2)[nH]1 [Example 54, ((2R,5S)-4-(1-(5-amino-4H-1,2,4-triazol-3-yl)piperidin-4-yl)-5-(4-chlorobenzyl)-morpholin-2-yl)(3,3-difluoropyrrolidin-1-yl)methanone 2,2,2-trifluoroacetate] | > 7.00 | < 4.00 | 6.00 to 7.00
CC1(C)CC1NC(=O)[C@H]1CN(C2CCN(c3nnc(N)[nH]3)CC2)[C@@H](Cc2ccc(Cl)cc2)CO1 (stereo partly drawn) [Example 23, (2R,5S)-4-(1-(5-amino-4H-1,2,4-triazol-3-yl)piperidin-4-yl)-5-(4-chlorobenzyl)-N-(2,2-dimethylcyclopropyl)morpholine-2-carboxamide 2,2,2-trifluoroacetate] | > 7.00 | < 4.00 | > 7.00
Cc1coc([C@H]2CN(C3CCN(c4nnc(N)[nH]4)CC3)[C@@H](Cc3ccc(Cl)cc3)CO2)n1 [Example 49, 5-(4-((2R,5S)-5-(4-chlorobenzyl)-2-(4-methyloxazol-2-yl)morpholino)piperidin-1-yl)-4H-1,2,4-triazol-3-amine 2,2,2-trifluoroacetate] | > 7.00 | 4.60 to 5.00 | > 7.00
Nc1nnc(N2CCC(N3C[C@H](Cn4cc(F)cn4)OC[C@@H]3Cc3ccc(Cl)cc3)CC2)[nH]1 [Example 36, 5-(4-((2R,5S)-5-(4-chlorobenzyl)-2-((4-fluoro-1H-pyrazol-1-yl)methyl)-morpholino)piperidin-1-yl)-4H-1,2,4-triazol-3-amine 2,2,2-trifluoroacetate] | > 7.00 | 4.60 to 5.00 | > 7.00
Nc1nnc(N2CCC(N3C[C@H](C(=O)N4CCC(F)(F)CC4)OC[C@@H]3Cc3ccc(Cl)cc3)CC2)[nH]1 [Example 53, ((2R,5S)-4-(1-(5-amino-4H-1,2,4-triazol-3-yl)piperidin-4-yl)-5-(4-chlorobenzyl)-morpholin-2-yl)(4,4-difluoropiperidin-1-yl)methanone 2,2,2-trifluoroacetate] | > 7.00 | 4.00 to 4.60 | 6.00 to 7.00
Nc1nnc(N2CCC(N3C[C@H](CN4CC[C@@H](O)C4)OC[C@@H]3Cc3ccc(Cl)cc3)CC2)[nH]1 [Example 31, (R)-1-(((2S,5S)-4-(1-(5-amino-4H-1,2,4-triazol-3-yl)piperidin-4-yl)-5-(4-chlorobenzyl)morpholin-2-yl)methyl)pyrrolidin-3-ol 2,2,2-trifluoroacetate] | > 7.00 | < 4.00 | 6.00 to 7.00
N#CC[C@H]1CN(C2CCN(c3nnc(N)[nH]3)CC2)[C@@H](Cc2ccc(Cl)cc2)CO1 [Example 6, 2-((2S,5S)-4-(1-(5-amino-4H-1,2,4-triazol-3-yl)piperidin-4-yl)-5-(4-chlorobenzyl)-morpholin-2-yl)acetonitrile 2,2,2-trifluoroacetate] | > 7.00 | < 4.00 | > 7.00
Nc1nnc(N2CCC(N3C[C@H](N4CCOCC4)CC[C@@H]3Cc3ccc(Cl)cc3)CC2)[nH]1 [Example 58, 5-((2R,5R)-2-(4-chlorobenzyl)-5-morpholino-[1,4′-bipiperidin]-1′-yl)-4H-1,2,4-triazol-3-amine 2,2,2-trifluoroacetate] | > 7.00 | 4.60 to 5.00 | 6.00 to 7.00
